From patent publication US20120053172A1 (Cooperatieve MIRzorg U.A., priority 2009, published 2012)
Read-outs that look alike come from different tables or passages of the source.

How the values were obtained:
[1] = test system: overweight patients with dyslipidemia; conditions: in vivo; cited from earlier work
obese men [2] = test system: obese men
Procedure: The study was focused on detecting the early beneficial effects. […] Metformin was started in a dose of 850 mg twice daily, and was increased to 850 mg three times daily in the second week. All subjects received exercise training three times a week, and all were instructed to take a 30 minute walk after lunch and after dinner.
Dietary intake was reduced by about 30%, according to the calculation procedure described in example 1.
A total of 19 obese men with a BMI of 30-37.5 kg/m^2 participated in the study.

[3] = test system: hyperinsulinaemic patients; conditions: maximal 200 mg/day in three dosages, eight weeks; placebo 5.0 kg; cited from earlier work
obese men [4] = conditions: one week, cited from earlier work
[5] = test system: hyperinsulinaemic obese subjects; conditions: 8-week weight-loss diet; 32 women, 3 men; cited from earlier work
obese men [6] = conditions: cited from earlier work
[7] = test system: obese hyperinsulinaemic men; conditions: high-dose, 6 months, with moderate caloric restriction and lifestyle advice; cited from earlier work
obese, healthy men = experiment: First study: open, uncontrolled 6 month Diazoxide insulin suppression and weight loss study
Procedure: Fourteen obese, healthy men were studied for 6 months in an open, uncontrolled study.
All subjects received dietary advice to reduce caloric intake to meet the calculated basal requirements for ideal body weight (based on the Harrison-Bennedict equation). They were also instructed to increase walking exercise to at least 30 minutes a day. […] Subsequently, the following data were recorded every month, for a period of 6 months: body weight, abdominal circumference, supine and upright blood pressure, the results of a two-day, 8-point HGM, and adverse effects.
DZX was increased every month until a maximum of 900 mg/day was reached or until side effects occurred.

[8] = test system: hyperinsulinaemic, non-diabetic adolescents; conditions: 850 mg twice daily for eight weeks; placebo 3.8%; cited from earlier work
adults = conditions: 2380±320 mg for six months; cited from earlier work
insulin secretion = conditions: comparable dosages; cited from earlier work
[9] = oral 300 mg per day in three dosages
[10] = after six months, mean dosage about 585 mg/day

## CCCCCCCCCCC[C@@H](C[C@@H]1OC(=O)[C@H]1CCCCCC)OC(=O)[C@H](CC(C)C)NC=O [Orlistat]
[1]
  (placebo-subtracted) net weight loss: ~3 kg

## CC1=NS(=O)(=O)c2cc(Cl)ccc2N1 [Diazoxide, 7-chloro-3-methyl-4H-1,2,4-benzothiadiazine-1,1-dioxide]
Obese men [2]; 2 months, mean±SEM, Diazoxide 100 mg twice then three times a day, Metformin 850 mg twice then three times daily
  decrease in fasting serum insulin: 42.4±17.7%
Obese men [2]; in vivo
  serum glucose level before treatment: 5.7 ± 0.2 mmol/L
[3]
  weight loss: 9.8 kg
Obese men [4]; oral 150 mg per day in three dosages
  effect on plasma glucose and insulin levels: no significant effect
Obese men [4]; oral 225 mg per day in three dosages
  effect on plasma glucose and insulin levels: no significant effect
Obese men [4]; [9]
  effect on fasting or postprandial glucose levels: without affecting fasting or postprandial glucose levels
  reduction of plasma insulin levels: about 20%
[5]
  effect on weight loss: No effect
Obese men [6]; [10]
  body weight after treatment: about 103 kg
  plasma level of Diazoxide: about 49 mg/l
Obese men [6]; before treatment
  body weight at start: about 114 kg
[7]
  weight reduction: relevant degree of weight reduction
obese, healthy men; 6 months
  body weight after treatment: 105.7 ± 3.8 kg
  other adverse effects: not observed
  waist circumference after treatment: 107.7±2.2 cm
obese, healthy men; 6 months, DEXA
  decrease of total body fat mass: 9.5 ± 1.9 kg
obese, healthy men; 6 months, mean daily dose 600±54 mg, P<0.001
  reduction of fasting insulin levels: 65%
obese, healthy men; 6 months, P<0.001
  change in total body fat mass: −23.3%
obese, healthy men; 6 months, P<0.01
  increase of fasting glucose: 0.8 ± 0.3 mmol/L
obese, healthy men; baseline
  body weight at baseline: 115.1 ± 3.4 kg
  waist circumference at baseline: 116.9±1.4 cm

## CC(C)CC(N(C)C)C1(c2ccc(Cl)cc2)CCC1 (stereo not drawn) [Sibutramine]
[1]
  (placebo-subtracted) net weight loss: about 5 kg

## CN(C)C(=N)N=C(N)N [Metformin]
[8]
  weight loss: about 6.5%
adults
  weight reduction: 3.24%

## Cc1c(C(=O)NN2CCCCC2)nn(-c2ccc(Cl)cc2Cl)c1-c1ccc(Cl)cc1 [Rimonanbant, Rimonabant]
[1]
  (placebo-subtracted) net weight loss: about 6 kg

## CNC(=NS(=O)(=O)c1ccc(Cl)cc1)N1C[C@H](c2ccccc2)C(c2ccc(Cl)cc2)=N1 [Compound A, (4S)-3-(4-chlorophenyl)-N′-[(4-chlorophenyl)sulfonyl]-N-methyl-4-phenyl-4,5-dihydro-1-H-pyrazole-1-carboximidamide]
Insulin secretion
  inhibiting insulin secretion, compared with Diazoxide: more effective than Diazoxide
